Assay results: ChEMBL document CHEMBL3994626 (Bioorg Med Chem Lett, 2017)

What was measured:
[1] = Drug uptake in Balb/c mouse KLH model at 0.6 mg/kg, po after 24 hrs; format: ADME, organism-based; conditions: in vivo, read-out: Drug uptake
[2] = AUC in BALB/c mouse up to 300 mg/kg, qd measured on day 4; format: ADME, organism-based; conditions: in vivo
[3] = Stability in mouse liver microsomes assessed as parent compound remaining at 0.5 uM after 10 mins by high throughput assay; format: ADME, microsome; conditions: read-out: Stability
[4] = Drug uptake in Balb/c mouse KLH model at 3 mg/kg, po after 7 hrs; format: ADME, organism-based; conditions: in vivo, read-out: Drug uptake
[5] = Drug uptake in Balb/c mouse KLH model at 15 mg/kg, po after 7 hrs; format: ADME, organism-based; conditions: in vivo, read-out: Drug uptake
[6] = Cmax in BALB/c mouse up to 300 mg/kg, qd measured on day 4; format: ADME, organism-based; design: dose 300 mg/kg; conditions: in vivo
[7] = Drug uptake in Balb/c mouse KLH model at 3 mg/kg, po after 24 hrs; format: ADME, organism-based; conditions: in vivo, read-out: Drug uptake
[8] = Drug uptake in Balb/c mouse KLH model at 15 mg/kg, po after 24 hrs; format: ADME, organism-based; conditions: in vivo, read-out: Drug uptake
[9] = Drug uptake in KLH Balb/c mouse model at 0.6 mg/kg, po after 7 hrs; format: ADME, organism-based; conditions: in vivo, read-out: Drug uptake

CC(=O)N1C[C@@H](C)N(c2cccc(-c3cc(-c4ccnn4C4CCOCC4)c4c(N)ncnn34)c2)[C@@H](C)C1
concentration at 24 h [1]: < 5.6 nM | AUC [2]: ≤ 520 µM·h | remaining at 10 min, 0.5 µM [3]: 54% | concentration at 7 h [4]: 24.9 nM | concentration at 7 h [5]: 97.8 nM | Cmax [6]: ≤ 55000 nM | concentration at 24 h [7]: < 3.9 nM | concentration at 24 h [8]: < 7 nM | concentration at 7 h [9]: < 6.4 nM

COc1cc(-c2cc(-c3ccnn3C3CCOCC3)c3c(N)ncnn23)cc(N2[C@H](C)CN(C(C)=O)C[C@@H]2C)c1
remaining at 10 min, 0.5 µM [3]: 14%

CC(=O)N1C[C@@H](C)N(c2cncc(-c3cc(-c4ccnn4C4CCOCC4)c4c(N)ncnn34)c2)[C@@H](C)C1
remaining at 10 min, 0.5 µM [3]: 48%

CC(=O)N1C[C@@H](C)N(c2cc(F)cc(-c3cc(-c4ccnn4C4CCOCC4)c4c(N)ncnn34)c2)[C@@H](C)C1
remaining at 10 min, 0.5 µM [3]: 35%
